This passage reports Control and Toxicity results from ChEMBL document CHEMBL1132181, “Prodrugs for amidines: synthesis and anti-Pneumocystis carinii activity of carbamates of 2,5-bis(4-amidinophenyl)furan” (J Med Chem, 1999).

In data set [1] the test system is Pneumocystis carinii. The experiment in a line: The compound was tested in vivo against Pneumocystis carinii pneumonia (PCP) in the immunosuppressed rat model at oral dose of 33.0(umol/kg/day). The format is functional.
The test system of data set [2] is Rattus norvegicus. Put plainly: Toxicity is evaluated according to a five-level scale ranging from 0 to 5+ at the specified oral dose of 33.0 (umol/kg/day). The format is organism-based. As to conditions: in vivo.
Data set [3] concerns Rattus norvegicus. The experiment in a line: Toxicity is evaluated according to a five-level scale ranging from 0 to 5+ at the specified iv dose of 22.0 (umol/kg/day). Type of data set: organism-based. As to conditions: in vivo.
In data set [4] the test system is Pneumocystis carinii. Put plainly: The compound was tested in vivo against Pneumocystis carinii pneumonia (PCP) in the immunosuppressed rat model at iv dose of 22.0 (umol/kg/day). Type of data set: functional.
The test system of data set [5] is Pneumocystis carinii. The experiment in a line: The compound was tested in vivo against Pneumocystis carinii pneumonia (PCP) in the immunosuppressed rat model at iv dose of 11.3(umol/kg/day). Type of data set: functional.
Data set [6] relates to Rattus norvegicus. The experiment in a line: Toxicity is evaluated according to a five-level scale ranging from 0 to 5+ at the specified iv dose of 11.0 (umol/kg/day). Type of data set: organism-based. As to conditions: in vivo.
For data set [7], the system named is Pneumocystis carinii. The experiment in a line: The compound was tested in vivo against Pneumocystis carinii pneumonia (PCP) in the immunosuppressed rat model at iv dose of 34.7 (umol/kg/day). The format is functional.
In data set [8] the test system is Rattus norvegicus. Put plainly: Toxicity is evaluated according to a five-level scale ranging from 0 to 5+ at the specified iv dose of 34.7 (umol/kg/day). Type of data set: organism-based. The conditions noted are these: in vivo.
Data set [9] has as its system Pneumocystis carinii. The experiment in a line: The compound was tested in vivo against Pneumocystis carinii pneumonia (PCP) in the immunosuppressed rat model at iv dose of 11.0 (umol/kg/day). The format is functional.
The test system of data set [10] is Rattus norvegicus. Put plainly: Toxicity is evaluated according to a five-level scale ranging from 0 to 5+ at the specified iv dose of 13.3 (umol/kg/day). Type of data set: organism-based. As to conditions: in vivo.
The subject of data set [11] is Pneumocystis carinii. Put plainly: The compound was tested in vivo against Pneumocystis carinii pneumonia (PCP) in the immunosuppressed rat model at oral dose of 39.8(umol/kg/day). Type of data set: functional.
In data set [12] the test system is Rattus norvegicus. The experiment in a line: Toxicity is evaluated according to a five-level scale ranging from 0 to 5+ at the specified oral dose of 39.8 (umol/kg/day). The conditions noted are these: in vivo. Type of data set: organism-based.
The test system of data set [13] is Pneumocystis carinii. Put plainly: The compound was tested in vivo against Pneumocystis carinii pneumonia (PCP) in the immunosuppressed rat model at iv dose of 13.3 (umol/kg/day). Type of data set: functional.

Turning to `CCSC(=O)NC(=N)c1ccc(-c2ccc(-c3ccc(C(=N)NC(=O)SCC)cc3)o2)cc1`, the values for the Control in [1] and in data set [4] were 19.52% and 83.01%, respectively. For the same compound, the Toxicity in data set [2] and in data set [3] was 0 throughout.
Turning to `Cc1oc(=O)oc1COC(=O)NC(=N)c1ccc(-c2ccc(-c3ccc(C(=N)NC(=O)OCc4oc(=O)oc4C)cc3)o2)cc1`, the values for the Control in data set [1] and in data set [4] were 18.73% and 0.02%, respectively. In addition, the Toxicity in data set [2] and in data set [3] was 0 each time.
Consider `COc1ccc(OC(=O)NC(=N)c2ccc(-c3ccc(-c4ccc(C(=N)NC(=O)Oc5ccc(OC)cc5)cc4)o3)cc2)cc1`, for which the Control was found to be 2.1% in data set [1] and 0.02% in data set [4]. In addition, the Toxicity in data set [2] and in data set [3] was 0 each time.
`N=C(NC(=O)OCc1ccccc1)c1ccc(-c2ccc(-c3ccc(C(=N)NC(=O)OCc4ccccc4)cc3)o2)cc1`: the Control came to 18.09% in [1] and 0.03% in [5]. For the same compound, the Toxicity in data set [6] and in [2] was 0 in each case.
For `N=C(NC(=O)Oc1ccc(F)cc1)c1ccc(-c2ccc(-c3ccc(C(=N)NC(=O)Oc4ccc(F)cc4)cc3)o2)cc1`, the Control stood at 2.21% in data set [1] and 0.02% in data set [4]. For the same compound, the Toxicity in data set [2] and in data set [3] was 0 each time.
Consider `COC(=O)NC(=N)c1ccc(-c2ccc(-c3ccc(C(=N)NC(=O)OC)cc3)o2)cc1`, for which the results for the Control in data set [1] and in data set [4] were 49.68% and 6.91%, respectively. Besides, the Toxicity in data set [2] and in data set [3] was 0 throughout.
In the case of `N=C(NC(=O)Oc1ccccc1)c1ccc(-c2ccc(-c3ccc(C(=N)NC(=O)Oc4ccccc4)cc3)o2)cc1`, the Control in data set [1] amounted to 5.7%; in data set [4], 3.61%. Further, the Toxicity in data set [2] and in data set [3] was 0 in each case.
Turning to `CCOC(=O)ONC(=N)c1ccc(-c2ccc(-c3ccc(C(=N)NOC(=O)OCC)cc3)o2)cc1`, the Control was determined as 1.66% in [7] and 96.9% in [1]. Further, the Toxicity in data set [2] and in data set [8] was 0 throughout.
For `N/C(=N\C(=O)OCC(Cl)(Cl)Cl)c1ccc(-c2ccc(-c3ccc(/C(N)=N\C(=O)OCC(Cl)(Cl)Cl)cc3)o2)cc1`, the Control in [1] is on record as 8.59%; in data set [4], 1.85%. In addition, the Toxicity in [2] and in data set [3] was 0 each time.
With `CC(=O)OC(C)OC(=O)NC(=N)c1ccc(-c2ccc(-c3ccc(C(=N)NC(=O)OC(C)OC(C)=O)cc3)o2)cc1` (centres undefined), the Control in data set [1] is recorded as 57.16%; in data set [9], 1.21%. In data set [2], the Toxicity is 0.
Regarding `N=C(N)c1ccc(-c2ccc(-c3ccc(C(=N)N)cc3)o2)cc1` [FURAMIDINE], the Toxicity in [10] and in data set [12] was 0 each time. The figures for the Control in data set [11] and in [13] were 44.52% and 0.83%, respectively.
Compound `N=C(N)c1ccc(OCCCCCOc2ccc(C(=N)N)cc2)cc1` [PENTAMIDINE] registered a Control in data set [4] of 3.06%.
